Measured values as given in patent publication US11160796B2, “Anti-androgens for the treatment of non-metastatic castration-resistant prostate cancer” (priority 2017, dated 2021).
“Also recorded” adds a separate entry of the source.

Experiments:
[1] = Bacterial reverse mutation (Ames) assay
[2] = test system: T1, major CYP isoforms other than CYP2C8; experiment: Cytochrome P450 inhibition: major isoforms; assay type: in vitro ADME; conditions: human; the other major isoforms (other than CYP2C8)
T1 construct: IC50; other: the other major isoforms (other than CYP2C8)

[3] = Incubation with liver S9 fraction and liver microsomes; assay type: in vitro ADME; conditions: incubated for up to 120 minutes; rat, dog, and human
From the text: The primary in vivo metabolites were formed by N-demethylation and amide hydrolysis in the rat and dog.

Plasma protein binding = conditions: plasma
[4] = Single-dose and repeat-dose toxicology studies in male rats
From the text: (§1) Single-dose and repeat-dose toxicology studies up to 13 weeks of dosing have been conducted in male Sprague Dawley (SD) rats and male Beagle dogs (repeat-dose studies only).

CYP1A2 and CYP2D6 = experiment: In vitro effect on CYP1A2 and CYP2D6; conditions: therapeutically relevant concentrations
CYP3A4 = molecular target: T2, CYP3A4 (Homo sapiens, UniProt P08684); experiment: Contribution of CYP3A4 in the metabolism of apalutamide; assay type: in vivo; conditions: estimated
T2 construct: from tissue; host or cells: human subjects, in vivo (clinical pharmacology)
T2 sequence (P08684 whole entry): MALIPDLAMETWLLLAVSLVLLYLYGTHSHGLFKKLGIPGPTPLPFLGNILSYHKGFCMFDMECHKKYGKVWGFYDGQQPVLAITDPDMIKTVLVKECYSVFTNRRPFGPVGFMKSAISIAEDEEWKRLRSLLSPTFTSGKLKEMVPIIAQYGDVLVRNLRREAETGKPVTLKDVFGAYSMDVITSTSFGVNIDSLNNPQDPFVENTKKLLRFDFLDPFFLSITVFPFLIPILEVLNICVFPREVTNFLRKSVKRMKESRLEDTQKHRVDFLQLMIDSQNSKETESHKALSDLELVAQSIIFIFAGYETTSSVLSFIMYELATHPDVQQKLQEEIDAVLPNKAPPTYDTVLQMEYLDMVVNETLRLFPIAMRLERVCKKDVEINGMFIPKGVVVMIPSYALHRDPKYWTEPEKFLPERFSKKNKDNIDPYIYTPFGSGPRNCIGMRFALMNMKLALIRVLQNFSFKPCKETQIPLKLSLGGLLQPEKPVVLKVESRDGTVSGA

[5] = Dedicated QT study in patients with CRPC; assay type: in vivo, human; conditions: 240 mg once daily
From the text: There was no difference greater than 20 ms in the mean QT interval change from baseline, based on the Fridericia correction method, across all timepoints at steady-state.
The maximum mean QTcF change from baseline was 12.4 ms (2-sided 90% upper CI: 16.0 ms).

[6] = test system: castration-resistant LNCaP/AR-Luc xenograft model; conditions: non-castrate hormone-sensitive and bicalutamide-resistant models (Clegg et al.); cited from earlier work
[7] = test system: castration-resistant LNCaP/AR-Luc xenograft model; experiment: Murine tumor (xenograft) models of CRPC; assay type: in vivo; conditions: for tumor cell proliferation and apoptosis in vivo: CRPC / mouse xenograft models of prostate cancer
[8] = Clinical pharmacokinetics (population PK analysis); conditions: for dose dependence of exposure (Cmax and AUC): repeat once-daily dosing, 30 to 480 mg
[9] = test system: CYP2C9, CYP2C19, and CYP3A4; experiment: In vitro CYP inhibition: CYP2C9, CYP2C19, CYP3A4
[10] = test system: BCRP, OATP1B1, and OATP1B3; conditions: not told
BCRP/OATP1B1 = experiment: Drug-drug interaction study, cocktail approach: rosuvastatin; parameters: species or system human; conditions: in vivo
in vivo = conditions: dog
From the text: as §1

[11] = test system: castration-resistant prostate cancer (CRPC); experiment: Phase II clinical trial of apalutamide 240 mg daily in CRPC; assay type: in vivo, human; conditions: for 12-week PSA declines of >50% or more from baseline (% of patients): preliminary
From the text: The primary objective was to assess antitumor activity and PSA kinetics as defined by the Prostate Cancer Clinical Trials Working Group (PCWG2) criteria. […] The median time to PSA progression was not reached for the TN cohort during the preliminary 12-week period, and was 16 weeks in the PA cohort.
The median time to PSA progression was not reached in this observed time period.

CYP2C8 [12] = molecular target: T3, CYP2C8 (Homo sapiens, UniProt P10632); experiment: Contribution of CYP2C8 in the metabolism of apalutamide; assay type: in vivo; conditions: estimated
T3 construct: from tissue; host or cells: human subjects, in vivo (clinical pharmacology)
T3 sequence (P10632 1-490): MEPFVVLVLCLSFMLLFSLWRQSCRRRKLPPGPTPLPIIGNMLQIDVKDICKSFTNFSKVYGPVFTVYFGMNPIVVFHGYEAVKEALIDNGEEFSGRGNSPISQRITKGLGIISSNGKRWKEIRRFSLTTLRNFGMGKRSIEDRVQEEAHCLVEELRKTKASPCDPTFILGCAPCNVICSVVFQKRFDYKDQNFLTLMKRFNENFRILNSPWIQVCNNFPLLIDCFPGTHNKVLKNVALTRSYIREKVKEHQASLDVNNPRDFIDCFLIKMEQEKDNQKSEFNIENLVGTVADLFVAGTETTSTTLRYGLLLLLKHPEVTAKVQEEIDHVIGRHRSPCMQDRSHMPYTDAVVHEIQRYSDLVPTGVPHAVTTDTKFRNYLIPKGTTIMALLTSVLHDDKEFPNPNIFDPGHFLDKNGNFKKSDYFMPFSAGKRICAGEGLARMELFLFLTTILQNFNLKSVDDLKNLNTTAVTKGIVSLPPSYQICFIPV

[13] = Preclinical pharmacokinetic profile; assay type: in vivo
[14] = In vitro chromosome aberration test; assay type: cell-based
[15] = test system: organic cation transporter 2 (OCT2), organic anion transporter 3 (OAT3) and multidrug and toxin extrusions (MATEs); experiment: In vitro transporter inhibition: OCT2, OAT3, MATEs; assay type: in vitro ADME
LNCaP/AR cells = experiment: In vitro model of CRPC (AR-over-expressing prostate cancer cells); assay type: cell-based
CYP2C8 [16] = molecular target: T3, CYP2C8; experiment: Drug-drug interaction study, cocktail approach: CYP2C8 substrate; conditions: in vivo

## CNC(=O)c1ccc(N2C(=S)N(c3cnc(C#N)c(C(F)(F)F)c3)C(=O)C23CCC3)cc1F [apalutamide, 4-[7-(6-cyano-5-trifluoromethylpyridin-3-yl)-8-oxo-6-thioxo-5,7-diazaspiro[3.4]oct-5-yl]-2-fluoro-N-methylbenzamide]
In vivo rat Comet assay
  genotoxicity, in vivo rat Comet assay: not genotoxic
[1]
  mutations in the bacterial reverse mutation (Ames) assay: did not induce mutations
[2]
  IC50: > 25 µM
[3]
  turnover: very low turnover
Plasma protein binding
  fraction unbound: 0.04
[4]; 13-weeks study, once daily oral gavage, male SD rats
  well tolerated dose: up to 100 mg/kg/day
[4]; male, Sprague Dawley, rat, in vivo
  dose with reproductive system findings (atrophy, aspermia/hypospermia, degeneration, hyperplasia or hypertrophy): > 25 mg/kg/day
[4]; male, Sprague-Dawley, rat, in vivo
  NOAEL at 13 weeks: 100 mg/kg/day
[4]; rat, in vivo, 150 mg/kg/day
  increase in cholesterol from controls: greater than 200%
CYP1A2 and CYP2D6
  effect on CYP1A2 and CYP2D6: do not affect
CYP3A4; at steady-state
  contribution of CYP3A4 in the metabolism: 37%
CYP3A4; following single dose
  contribution of CYP3A4 in the metabolism: 13%
[5]; 45 patients with CRPC
  maximum mean QTcF change from baseline: 12.4 ms
[5]; all timepoints at steady-state
  difference in mean QT interval change from baseline (Fridericia correction): ≤ 20 ms
[6]
  tumor regression in human prostate cancer xenograft models: partial or complete tumor regression
[7]
  tumor cell proliferation and apoptosis in vivo: reduce proliferation of CRPC cells as well as increase apoptosis and necrosis
[7]; listed as Apalutamide
  tumor cell proliferation and apoptosis in vivo: decreased tumor cell proliferation and increased apoptosis leading to decreased tumor volume
[7]; murine tumor models of CRPC
  tumor growth inhibition and tumor regression: dose-dependent tumor growth inhibition and tumor regression that were superior to bicalutamide
[8]; 240 mg once daily
  time to steady state: 4 weeks
[8]; after single dosing
  CL/F: 1.3 L/h
[8]; at steady-state after once-daily dosing
  CL/F: 2.0 L/h
[8]; high-fat meal vs fasting, healthy subjects
  changes in Cmax and AUC with food: no clinically relevant changes
[8]; human, plasma, po
  Tmax: 2 h
  bioavailability: ~100%
[8]; mild or moderate renal impairment, mild or moderate hepatic impairment, age 18 to 94 years, race
  differences in pharmacokinetics in specific populations: No clinically significant differences
[8]
  dose dependence of exposure (Cmax and AUC): dose-proportional
[8]; listed as Apalutamide
  dose dependence of exposure (Cmax and AUC): increased proportionally
[9]
  inhibition of CYP2C9, CYP2C19, and CYP3A4: weak inhibitors
[10]
  substrate for BCRP, OATP1B1, and OATP1B3: not BCRP, OATP1B1, and OATP1B3
BCRP/OATP1B1
  BCRP/OATP1B1 inducer clinically: weak and weak inducer
  impact on Cmax of rosuvastatin: no impact
In vivo
  increases in cholesterol compared to controls: up to 50%
In vivo; male, Beagle
  NOAEL at 13 weeks: 5 mg/kg/day
  NOAEL at 28 days: 10 mg/kg/day
  dose at which seizures necessitating humane euthanasia occurred: ≥ 25 mg/kg/day
  dose with reproductive system findings: > 2.5 mg/kg/day
In vivo; male, Beagle, 10 mg/kg/day
  AUC(0-t): 290 µg·h/mL
  Cmax: 13.2 µg/mL
[11]; PA cohort
  median time to PSA progression: 16 weeks
[11]; PA cohort (progressed after abiraterone acetate plus prednisone), 240 mg oral daily
  12-week PSA declines of >50% or more from baseline (% of patients): 29%
[11]; TN cohort (treatment-naive metastatic CRPC), 240 mg oral daily
  12-week PSA declines of >50% or more from baseline (% of patients): 88%
[11]; TN cohort, preliminary 12-week period
  median time to PSA progression: not reached
[11]; TN patients with measurable disease at baseline
  objective response rate (by RECIST): 63%
[11]; non-metastatic CRPC, 240 mg oral daily, 12 weeks
  patients with >50% decline in PSA as compared to baseline: 91%
[11]; non-metastatic CRPC, 24 weeks
  patients with >50% decline in PSA: 91%
  patients with >90% decline in PSA: 55%
[11]; non-metastatic CRPC, observed time period
  median time to PSA progression: not reached
CYP2C8 [12]; at steady-state
  contribution of CYP2C8 in the metabolism: 40%
CYP2C8 [12]; following single dose
  contribution of CYP2C8 in the metabolism: 58%
[13]; preclinical
  clearance: low clearance
  volume of distribution: moderate volume of distribution
[13]; when dosed with a lipid-based formulation
  bioavailability: high bioavailability
[14]
  genotoxicity, in vitro chromosome aberration: not genotoxic
[15]
  inhibition of OCT2, OAT3 and MATEs: cannot be excluded; also recorded: inhibit
LNCaP/AR cells; LNCaP/AR cells
  agonist properties in an in vitro model of CRPC: no significant agonist properties
LNCaP/AR cells; in vitro
  Gene transcription of the androgen-driven genes, PSA and TMPRSS2: inhibited
CYP2C8 [16]
  changes in exposure to the CYP2C8 substrate: did not cause clinically meaningful changes
